Here are results for three compounds from patent publication US20160242414A1, “SAFENED HERBICIDAL COMPOSITIONS CONTAINING HALAUXIFEN OR 4-AMINO-3-CHLORO-5-FLUORO-6-(4-CHLORO-2-FLUORO-3-METHOXYPHENYL) PYRIDINE-2-CARBOXYLIC ACID AND METHODS OF USE THEREOF IN TURF” (Dow AgroSciences LLC, priority 2015, published 2016).

Data set [1] has as its system perennial ryegrass (LOLPE). Put plainly: Postemergence turf injury field trial, perennial ryegrass, with Activator 90 adjuvant.
Protocol: (§1) For the ryegrass and tall fescue experiments, research trials were conducted in Indiana at the William H Daniel Turfgrass Research center in West Lafayette, Ind. on well established 10 year old stands of perennial ryegrass and tall fescue that were maintained as a home lawn with regular fertilization, irrigation and a 7.5 cm mowing height. To begin the trial, the research areas were sub-divided into 3 replications of 2.3 m^2 plots in a completely randomized block design for each grass species and spray mixtures were prepared just prior to the treatment by mixing the formulations with water.
Herbicide treatments were applied to ryegrass and tall fescue turfgrass plots in spray applications that included the spray adjuvant Activator 90 at 0.25% (v/v). The plots were treated with a hand held CO2 backpack sprayer equipped with a 3 liter bottle that delivered 804 liters/ha of spray to each plot using a flat fan nozzle. No irrigation, rainfall or mowing occurred until 24 hours after the application. The temperature at the time of the application was 24° C. and the wind speed averaged 4.8 km/hr. There was no cloud cover during the application and the soil was moist. Visual evaluations were made of turf injury for each plot on a 0%-100% scale where 0%=no injury and 100%=death at 0, 7, 14, 28 and 42 days after the application.
The following equation was used to calculate the expected activity of mixtures containing two active ingredients, A and B:
Expected=A+B−(A×B/100) • A=observed efficacy of active ingredient A at the same concentration as used in the mixture; • B=observed efficacy of active ingredient B at the same concentration as used in the mixture.
Another data set concerns tall fescue (FESAR). Put plainly: Postemergence turf injury field trial, tall fescue, with Activator 90 adjuvant. Conditions: 28 days after application.

Protocol for tall fescue (FESAR): as §1
Herbicide treatments were applied to ryegrass and tall fescue turfgrass plots in spray applications that included the spray adjuvant Activator 90 at 0.25% (v/v). The plots were treated with a hand held CO2 backpack sprayer equipped with a 3 liter bottle that delivered 804 liters/ha of spray to each plot using a flat fan nozzle. No irrigation, rainfall or mowing occurred until 24 hours after the application. The temperature at the time of the application was 24° C. and the wind speed averaged 4.8 km/hr. There was no cloud cover during the application and the soil was moist. Visual evaluations were made of turf injury for each plot on a 0%-100% scale where 0%=no injury and 100%=death at 0, 7, 14, 28 and 42 days after the application. […]

For the compound `CNC.O=C(O)COc1ccc(Cl)cc1Cl` [2,4-D DMA, 2,4-D dimethyl ammonium], the “Observed Injury” value in data set [1] (28 days after application, 2,4-D DMA 840 g ae/ha) is 3%; in data set [1] (28 days after application, 2,4-D DMA 1120 g ae/ha), 7%; in data set [1] (28 days after application, 2,4-D DMA 1680 g ae/ha) it was 0%; in data set [1] (28 days after application, 2,4-D DMA 2520 g ae/ha) it was 10%; in data set [1] (42 days after application, 2,4-D DMA 840 g ae/ha), 0%; in data set [1] (42 days after application, 2,4-D DMA 1120 g ae/ha), 0%. Further, the “Observed Injury” value in data set [1] (42 days after application, 2,4-D DMA 1680 g ae/ha) is listed as 0%; in data set [1] (42 days after application, 2,4-D DMA 2520 g ae/ha), 0%.

Turning to `CNC.COc1c(Cl)ccc(Cl)c1C(=O)O` [Dicamba DMA, dicamba dimethyl ammonium], the “Observed Injury” value came out at 7% in data set [1] (28 days after application, dicamba DMA 280 g ae/ha) and 0% in the data set on tall fescue (FESAR) (dicamba DMA 280 g ae/ha).

Take `COC(=O)c1nc(-c2ccc(Cl)c(OC)c2F)cc(N)c1Cl` [Halauxifen-Methyl, halauxifen-methyl]: the “Observed Injury” value in data set [1] (28 days after application, halauxifen-methyl 15 g ae/ha, 0%=no injury, 100%=death) is reported as 23%; in data set [1] (28 days after application, halauxifen-methyl 30 g ae/ha), 33%; in data set [1] (28 days after application, halauxifen-methyl 45 g ae/ha), 40%; in data set [1] (42 days after application, halauxifen-methyl 15 g ae/ha) it was 8%; in data set [1] (42 days after application, halauxifen-methyl 30 g ae/ha), 12%; in data set [1] (42 days after application, halauxifen-methyl 45 g ae/ha) it was 35%. Also, the “Observed Injury” value in the data set with tall fescue (FESAR) (halauxifen-methyl 30 g ae/ha) amounted to 32%.
